This note sets out measurements from patent US11213529B2, “Salt of substituted urea derivative and use thereof in medicine” (SUNSHINE LAKE PHARMA CO. LTD., priority 2017, dated 2022).

The Cmax is the maximum level reached in the sampled fluid or tissue. In general, Tmax refers to the time from dosing to the highest level. One may read the AUC(0-inf) as the area under the concentration-time curve extrapolated to infinity. What is called AUC(0-t) is exposure summed from dosing to a finite time, without extrapolation to infinity. By MRT inf is commonly meant the average time that molecules of a dose stay in the body. One may read the half-life as the time in which the quantity being followed falls by half.

For data set [1] the following is noted: for Appearance / Purity/%: illumination 4500±500 lx, UV; for Purity/%: HPLC.
The conditions of data set [2]: for Purity/%: HPLC. From the text:
Samples were taken at fifth and tenth day, appearance was observed and purity was detected by HPLC.

A short description of data set [3]: Pharmacokinetics experiments of the salts of compound (I), oral capsules. Format: in vivo, Beagle dogs. The method, then:
The free base 1-(5-(tert-butyl)isoxazol-3-yl)-3-(4-((4-(3-morpholinopropoxy)phenyl) ethynyl)phenyl)urea, various salts or crystalline forms thereof were filled into capsules for oral administration respectively. Male Beagle dogs (6-10 kg) were grouped randomly, each group has 3, one was administered with free base by oral, others with various salts or crystalline forms thereof by oral at a dosage of 5 mg/kg. Blood samples were collected at 0.25, 0.5, 1.0, 2.0, 4.0, 6.0, 8.0, 12 and 24 hours after the administration. Standard curve was plotted based on concentrations of the samples in a suitable range, the concentrations of test compounds in plasma samples were determined by using Agilent 6430 LC-MS/MS under MRM mode, and quantitative analysis was performed. Pharmacokinetic parameters were calculated according to drug concentration-time curve using a noncompartmental method by WinNonLin 6.3 software.

Setting [4] is: High humidity (25° C., RH 90% ± 5%), 0 day.
[5] abbreviates: High humidity (25° C., RH 90% ± 5%), 5 days.
[6] abbreviates: High humidity (25° C., RH 90% ± 5%), 10 days.
The mark [7] stands for this setting: High temperature (60° C. ± 2° C.), 0 day.
Setting [8] is: High temperature (60° C. ± 2° C.), 5 days.
[9] abbreviates: High temperature (60° C. ± 2° C.), 10 days.
[10] abbreviates: male Beagle dogs, oral capsule, 5 mg/kg, plasma.
[11] abbreviates: dog, male Beagle dogs, oral capsule, 5 mg/kg, plasma.

Where two headings read alike, the source gives them in different places.

On to `CC(C)(C)c1cc(NC(=O)Nc2ccc(C#Cc3ccc(OCCCN4CCOCC4)cc3)cc2)no1.O=S(=O)(O)c1ccccc1` [Benzene sulfonate crystaline form I], for which the “change of appearance and purity” value was “have not been changed distinctly” in data set [1] (illumination); “have not been changed distinctly” in data set [2] (high humidity (25° C., RH 90%±5%)); “have not been changed distinctly” in data set [2] (high temperature (60° C.±2° C.)). In addition, the Appearance result in data set [1] (0 day), in data set [1] (5 days), in data set [1] (13 days), in data set [2] (setting [4]), in data set [2] (setting [5]) and in data set [2] (setting [6]) was “yellow” throughout. The Appearance result in data set [2] (setting [7]), in data set [2] (setting [8]) and in data set [2] (setting [9]) was “yellow” in each case. In addition, the Purity/% stood at 98.61% in data set [1] (0 day); 98.67% in data set [1] (5 days); 98.71% in data set [1] (13 days); 98.61% in data set [2] (setting [4]); 98.59% in data set [2] (setting [5]); 98.59% in data set [2] (setting [6]). In addition, the Purity/% in data set [2] (setting [7]) was 98.61%; in data set [2] (setting [8]), 98.64%; in data set [2] (setting [9]), 98.61%. The values for the Hygroscopic weight gain/% in data set [2] (setting [5]) and in data set [2] (setting [6]) were 0.388% and 1.100%, respectively. Further, the hygroscopicity characteristics entry in data set [2] (from weight gain under high humidity for 10 days) is “slightly hygroscopicity (less than 2% but no less than 0.2%)”. Further, in data set [3] (beagle dogs, oral 5 mg/kg), the absorption result is “faster”. In data set [3] (beagle dogs, oral 5 mg/kg), the “exposure level compared with the free base” value was “higher”. In data set [3] (setting [10]), the AUCINF was determined as 592 ng·h/mL. For the same compound, in data set [3] (setting [10]), the AUClast was 575 ng·h/mL. Further, the peak concentration (Cmax) in data set [3] (setting [10]) came to 92.3 ng/mL. Further, in data set [3] (setting [10]), the MRTINF amounted to 6.55 h. In data set [3] (setting [10]), the T1/2 is 5.26 h. The Tmax in data set [3] (setting [10]) is listed as 1 h.

For the compound `CC(C)(C)c1cc(NC(=O)Nc2ccc(C#Cc3ccc(OCCCN4CCOCC4)cc3)cc2)no1` [Free base, 1-(5-(tert-butyl)isoxazol-3-yl)-3-(4-((4-(3-morpholinopropoxy)phenyl)ethynyl)phenyl)urea], in data set [3] (setting [11]), the AUC(0-inf) amounted to 423 ng·h/mL, the area under the curve AUC(0-t) came out at 389 ng·h/mL, the mean residence time MRT inf worked out at 7.52 h and the half-life was 5.95 h. Besides, the maximum concentration (Cmax) in data set [3] (dog, male Beagle dogs, oral capsule, 5 mg/kg, plasma, read-out: Cmax) came out at 60.9 ng/mL. The time to peak (Tmax) in data set [3] (dog, male Beagle dogs, oral capsule, 5 mg/kg, plasma, read-out: Tmax) is 1.67 h.

In the case of `Br.CC(C)(C)c1cc(NC(=O)Nc2ccc(C#Cc3ccc(OCCCN4CCOCC4)cc3)cc2)no1` [Hydrobromide crystaline form I], in data set [3] (setting [10]), the AUCINF was determined as 225 ng·h/mL, the AUClast was determined as 401 ng·h/mL, the peak concentration (Cmax) was found to be 36.4 ng/mL and the MRTINF was 8.54 h. Also, in data set [3] (setting [10]), the T1/2 came to 6.64 h and the time to peak (Tmax) came out at 1.33 h.

For the compound `CC(C)(C)c1cc(NC(=O)Nc2ccc(C#Cc3ccc(OCCCN4CCOCC4)cc3)cc2)no1.Cl` [Hydrochloride crystaline form I], in data set [3] (setting [10]), the AUCINF came to 371 ng·h/mL, the AUClast was 358 ng·h/mL, the peak concentration (Cmax) stood at 51.2 ng/mL and the MRTINF is 6.5 h. Moreover, in data set [3] (setting [10]), the T1/2 was determined as 4.86 h and the Tmax was found to be 1.67 h.
